The data set concerns aqueous buffer solubility, pH 5.0/6.2/7.4. Nature of the data set: aqueous buffer solubility at three pH values, ADME assay, biophysical, set 2 (AID 624323). Particulars: at 100 µM, stronger effect = higher value.
Setting [1] is: measured here: solubility at pH 5.0.
Where [2] appears, read: measured here: solubility at pH 6.2.

From PubChem BioAssay AID624323 (Sanford-Burnham Center for Chemical Genomics, 2012) come the findings set out here.

Values after ≈ are worked out from the molar mass of the structure shown. Active and inactive are the calls of the source. The rule behind the calls is not given here.

The term solubility denotes the concentration that dissolves in the medium under given conditions.

Consider `COc1ccc(C2CC(c3ccccc3)=NN2c2ccc(S(N)(=O)=O)cc2)cc1` (stereo not drawn), for which the solubility was 0.05 µg/mL (inactive) (≈ 0.123 µM). Under setting [1], this molecule gave a solubility of 0.06 µg/mL (≈ 0.147 µM). Further, the solubility under setting [2] worked out at 0.04 µg/mL (≈ 0.0982 µM).
As for `Cn1nnnc1Sc1ncnc2scc(-c3ccccc3)c12`, the solubility is 3.5 µg/mL (inactive) (≈ 10.7 µM). This molecule showed a solubility under setting [1] of 2.9 µg/mL (≈ 8.88 µM). The solubility under setting [2] turned out to be 3.1 µg/mL (≈ 9.5 µM).
In the same order, the values of `N#C/C(=C\c1ccc([N+](=O)[O-])o1)c1nc2ccccc2[nH]1` are 0.14 µg/mL (inactive) (≈ 0.5 µM), 0.08 µg/mL (≈ 0.285 µM) and 0.12 µg/mL (≈ 0.428 µM).
In the same order, the values of `CCCc1nc2c(=O)n(C)c(=O)nc-2n(C)n1` are more than 23 µg/mL, more than 23 µg/mL and more than 23 µg/mL.
Consider `CN(C)C1=C(Cl)C(=O)N(c2ccc(Cl)c(Cl)c2)C1=O`, for which the solubility was < 0.01 µg/mL (inactive). Moreover, the solubility under setting [1] amounted to 0.06 µg/mL (≈ 0.188 µM). Further, the solubility under setting [2] is 0.12 µg/mL (≈ 0.375 µM).
In the same order, the values of `COc1cccc(-c2nc(-c3ccc(NC(=O)Cc4ccccc4OC)cc3)no2)c1` are < 0.01 µg/mL (inactive), 0.09 µg/mL (≈ 0.217 µM) and 0.05 µg/mL (≈ 0.12 µM).
For `Cc1nc(SCc2nc3ccccc3[nH]2)c2oc3ccccc3c2n1`, in that order: 0.11 µg/mL (inactive) (≈ 0.318 µM), 0.26 µg/mL (≈ 0.751 µM) and 0.22 µg/mL (≈ 0.635 µM).
Consider `COc1ccccc1N(/N=C1\Sc2ccccc2C1=O)C(C)=O`, for which the solubility was 2.4 µg/mL (inactive) (≈ 7.35 µM). Moreover, the solubility under setting [1] was determined as 2.4 µg/mL (≈ 7.35 µM). Under setting [2], this molecule gave a solubility of 2.7 µg/mL (≈ 8.27 µM).
`O=C(O)c1cccnc1SCCc1ccccc1`: the solubility is more than 26 µg/mL. For the same molecule, the solubility under setting [1] is more than 26 µg/mL. This molecule returned a solubility under setting [2] of more than 26 µg/mL.
For `O=C(COc1ccccc1Br)NCCc1nc2ccccc2[nH]1`, the solubility was more than 37 µg/mL. This molecule also had a solubility under setting [1] of more than 37 µg/mL. Under setting [2], this molecule displayed a solubility of more than 37 µg/mL.
On to `Cc1ccc(C(=O)n2c3ccccc3c3ccccc32)cc1`, for which the solubility was < 0.01 µg/mL (inactive). The solubility under setting [1] was less than 0.01 µg/mL. In addition, the solubility under setting [2] is less than 0.01 µg/mL.
Take `Cc1ccc(S(=O)(=O)NCc2ccc(C(=O)NCCN(Cc3ccccc3)C(C)C)cc2)cc1`: the solubility is 19.6 µg/mL (≈ 40.9 µM). Further, the solubility under setting [1] is more than 47 µg/mL. In addition, the solubility under setting [2] amounted to 34.7 µg/mL (≈ 72.3 µM).
In the same order, the values of `COc1ccc(CSc2nc(C)cc(=O)[nH]2)cc1` are more than 26 µg/mL, more than 26 µg/mL and more than 26 µg/mL.
For `CCCC(=O)Nc1cccc(NC(=O)c2ccccc2Br)c1`, in that order: more than 36 µg/mL, more than 36 µg/mL and more than 36 µg/mL.
For `O=C(c1ccccn1)N(Cc1cccs1)C1(C(=O)NC2CCCCC2)CCCCC1`, in that order: 22.7 µg/mL (≈ 53.3 µM), 7.4 µg/mL (≈ 17.4 µM) and 15 µg/mL (≈ 35.2 µM).
Take `NC(=O)C1CCN(c2nc(-c3ccc(Br)cc3)cs2)CC1`: the solubility was 0.12 µg/mL (inactive) (≈ 0.328 µM). In addition, under setting [1], the solubility was determined as 0.14 µg/mL (≈ 0.382 µM). Besides, under setting [2], the solubility amounted to 0.14 µg/mL (≈ 0.382 µM).
`CCCc1cc(C(=O)N(C2CCCCC2)C2CCCCC2)no1`: the solubility was 1.3 µg/mL (inactive) (≈ 4.08 µM). Further, under setting [1], the solubility came out at 2.1 µg/mL (≈ 6.59 µM). In addition, under setting [2], the solubility is 2 µg/mL (≈ 6.28 µM).
For `c1ccc(-c2nnc(N3CCOCC3)nc2-c2ccccc2)cc1`, in that order: 2.3 µg/mL (inactive) (≈ 7.22 µM), 2 µg/mL (≈ 6.28 µM) and 1.8 µg/mL (≈ 5.65 µM).
For `C/C=C/Cn1c(SCCCc2ccccc2)nc2c1c(=O)[nH]c(=O)n2C`, in that order: 0.39 µg/mL (inactive) (≈ 1.05 µM), 0.24 µg/mL (≈ 0.648 µM) and 0.31 µg/mL (≈ 0.837 µM).
For `Brc1ccc2c(c1)CN1CCCC1=N2`, in that order: more than 25 µg/mL, more than 25 µg/mL and more than 25 µg/mL.
With `CCN1CCN(c2nc3ccccc3nc2C(C#N)C(=O)OC2CCCCC2)CC1` (stereo not drawn), the solubility is 25.8 µg/mL (≈ 63.3 µM). For the same molecule, the solubility under setting [1] was more than 40 µg/mL. Moreover, the solubility under setting [2] is more than 40 µg/mL.
In the case of `CCCN(CCC)CCNC(=O)C1CCN(Cc2nc(-c3ccc(Cl)cc3)oc2C)CC1`, the solubility was more than 46 µg/mL. Further, under setting [1], the solubility was more than 46 µg/mL. Moreover, under setting [2], the solubility is more than 46 µg/mL.
Consider `O=c1c(O)c(-c2cc(O)c(O)c(O)c2)oc2cc(O)cc(O)c12`, for which the solubility is 1.7 µg/mL (inactive) (≈ 5.34 µM). For the same molecule, the solubility under setting [1] turned out to be 3.2 µg/mL (≈ 10.1 µM). The solubility under setting [2] is 5.3 µg/mL (≈ 16.7 µM).
For `Cc1cccc(-n2cnc3cc(C(=O)N4CCCCC4)ccc32)c1`, in that order: more than 32 µg/mL, more than 32 µg/mL and more than 32 µg/mL.
For the molecule `O=C(CCNS(=O)(=O)c1cccc2nsnc12)N1CCN(c2ccccn2)CC1`, the solubility is more than 43 µg/mL. Besides, the solubility under setting [1] came to 35.8 µg/mL (≈ 82.8 µM). For the same molecule, under setting [2], the solubility was 35.5 µg/mL (≈ 82.1 µM).
For `O=S(=O)(NC1CCCCC1N1CCOCC1)c1ccc(Cl)cc1` (stereo not drawn), in that order: 26.2 µg/mL (≈ 73 µM), more than 36 µg/mL and more than 36 µg/mL.
